What is called IC50 is the concentration at which inhibition is half-maximal.

The text below walks through data of patent US8338473B2, “Derivatives of psammaplin A, a method for their synthesis and their uses for the prevention or treatment of cancer” (Centre National de la Recherche Scientifique, priority 2007, dated 2012).

In data set [1] the test system is p53. In words: p53 acetylation in MCF7 cells (Western blot). The format is cell-based, human. The note with it: MCF7, 6 hrs, co-treatment with Etoposide 25 μM. The method, then: FIG. 13B: western blot of MCF7 cells treated with etoposide alone or in presence of sirtinol (a known SIRT2 inhibitor) and with uvi5008 concentrations of 50 μM and 5 μM.
MCF7 cells (human breast cancer cells) have been growth following standard procedure and have been treated for 6 hrs with the indicated compounds in presence of 25 μM Etoposide. Total protein extracts have been run on SDS gel and blotted. Western Blot has been carried out by using the anti p53 ac382 (Abcam) following standard procedures. ERKs (Santa Cruz) have been used for equal loading control.
(Immunoblotting shows a protein as a band on a membrane.)

Data set [2] deals with cancer cell lines A-375, DU145 and HCT-116. In words: Dose response curves, anti-proliferative activity on cancer cell lines. The note with it: range over A-375, DU145, HCT-116; read-out: IC50 values, anti-proliferative activity on different types of cancer cell lines. The format is cell-based. The method, then:
HCT-116, A-375 and DU-145 cells were plated at 8000 cells per well in 96-well transparent cell culture grade plates (Corning). Plates were kept in the humidified CO2 (5%) incubator overnight so that cells get attached to the bottom. […] Viable cells cleave the MTT tetrazolium ring into a dark blue formazan reaction product, whereas dead cells remain colorless. The MTT-containing medium was gently removed and DMSO was added in each well. After shaking, the plates were read in absorbance at 540 nm. All results are expressed as the average of three wells. Percent cytotoxicity was measured of each compound and represented in terms of its IC50 values.
Anti-proliferative activity on cancer cell lines A-375, DU145 and HCT-116: […]

The test system of data set [3] is HCT-116 colon carcinoma cells xenografted in immunoincompetent mice. The note with it: for Normalised tumour weight: mean of n = 10.
Data set [4] concerns the target human recombinant SIRT2 (Homo sapiens, UniProt Q8IXJ6). In words: SIRT activity assay, SIRT2. It is filed as biochemical. The method, then:
FIG. 13A: % of SIRT1 and SIRT2 activity with controls, sodium suramine, a sirtuin inhibitor, and resveratrol a SIRT1 activator, and with UVI5008 at concentrations of 50 μM and 5 μM.
The SIRT activity assay was performed using the human recombinant SIRT1 and SIRT2. SIRT1 (1 U/well) or SIRT2 (5 U/well), respectively, were incubated (37° C. for 1 h) with the SIRT1/2 substrate (corresponding to a p53 acetylated peptide) in the presence of NAD^+ and various concentrations of tested compounds (sirtuins activators or inhibitors). Activity was measured as fluorescence intensity. As internal controls, sodium suramin, a sirtuin inhibitor, and resveratrol, a SIRT1 activator, have been included. The fluorescence was measured on a fluorometric reader (Inphinite 200 TECAN) with excitation set at 360 nm and emission detection set at 460 nm

The test system of data set [5] is breast cancer cells (ZR75.1). In words: Anti-proliferative and apoptogenic action in breast cancer cells. It is filed as cell-based. The note with it: data not shown.
For data set [6], the system named is p16INK4a promoter. The data set can be described thus: Methylation specific PCR for the p16 gene. The note with it: 24 hrs. The format is cell-based. The method, then:
FIG. 2: a) Methylation specific PCR for the RARβ gene after 16 and 24 hrs of treatment with the indicated compounds; b) Methylation specific PCR for the p16 gene after 24 hrs of the indicated treatments. Samples are representative of real duplicates; c) p16 expression levels in U937 cells after 24 hrs with the indicated treatments; d) DNMT enzymatic in vitro assay carried out with 1.5 and 50 μM of the indicated compounds;
DNA extraction was performed as described below. Bisulfite treatment and PCR for the determination of p16 methylation was performed as described from the suppliers (Chemicon).

The test system of data set [7] is p21WAF1/CIP1. The data set can be described thus: p21 expression, Western blot in U937 cells. It is filed as cell-based, human. The note with it: U937, 6 and 16 hrs. The method, then:
(§1) FIG. 1: a) Cell cycle analysis of U937 cells treated for 30 hrs with the indicated compounds used at 1 and 5 μM; b) Caspase 3 apoptotic assay of the indicated compounds after 24 hrs of treatment in the U937 cells; c) Tubulin acetylation and p21 expression levels at 6 and 16 hrs after treatment with the indicated compounds; total tubulin expression levels are used for equal loading; d) Histone H3 acetylation and K9 H3 methylation expression levels at 6 and 16 hrs after treatment with the indicated compounds; total tubulin expression levels are used for equal loading; e) K9, K14, K18 histone H3 acetylation expression levels at 6 and 16 hrs after treatment with the indicated compounds; total ERKs expression levels are used for equal loading; f) HDAC1 enzymatic assay: IP-HDAC1 is incubated with the indicated inhibitors for 24 Hrs; activity is measured as ^3H-acetyl release; g) HDAC4 enzymatic assay: IP-HDAC4 is incubated with the indicated inhibitors for 24 hrs; activity is measured as ^3H-acetyl release.
FIG. 3: a) Cell cycle and apoptosis analysis carried out in U937 cells after 24 hrs with the indicated compounds; values are media of independent triplicates; b) CD11c expression analysis carried out in U937 cells with the indicated compounds; values are media of independent duplicates; c) Tubuline acetylation and p21 expression levels in U937 cells after 24 hrs with the indicated treatments; total ERKs expression levels are used for equal loading; d) acetylation of histone H3 under the conditions indicated in (c).
For the determination of p21^WAF1/CIP1 and p16^INK4 100 μg of total protein extracts were separated on a 15% polyacrylammide gels and blotted. Western blots were shown for p21 (Transduction Laboratories, dilution 1:500), p16 (Santa Cruz) and total ERKs (Santa Cruz) were used to normalise for equal loading. For alpha-tubulin acetylation 25 μg of total protein extracts were separated on a 10% polyacrylamide gels and blotted. […]

Data set [8] relates to HCT-116 cells. The data set can be described thus: MTT cytotoxicity assay, HCT-116. The note with it: read-out: IC50 values, MTT cytotoxicity assay; HCT-116, 48 h. (Tetrazolium assays rely on reduction of a dye to a coloured formazan, in cell work by metabolically active cells.)
In data set [9] the test system is histone H3. The data set can be described thus: Histone H3 acetylation and K9 H3 methylation levels in U937 cells. The format is cell-based, human. The note with it: U937, 6 and 16 hrs. The method, then:
as §1
For the determination of p21^WAF1/CIP1 and p16^INK4 100 μg of total protein extracts were separated on a 15% polyacrylammide gels and blotted. Western blots were shown for p21 (Transduction Laboratories, dilution 1:500), p16 (Santa Cruz) and total ERKs (Santa Cruz) were used to normalise for equal loading. For alpha-tubulin acetylation 25 μg of total protein extracts were separated on a 10% polyacrylamide gels and blotted. Western blots were shown for acetylated alpha-tubulin (Sigma, dilution 1:500) and total ERKs (Santa Cruz) or total tubulin (Sigma) were used to normalise for equal loading.

For data set [10], the system named is prostate cancer cells (LnCap). The data set can be described thus: Anti-proliferative and apoptogenic action in prostate cancer cells. It is filed as cell-based. The note with it: data not shown.
In data set [11] the target is HDAC4 (Homo sapiens, UniProt P56524). In words: HDAC4 enzymatic assay (IP-HDAC4, 3H-acetyl release). The format is biochemical. The note with it: IP-HDAC4 incubated with inhibitor 24 hrs. The method, then: as §1
Chain of HDAC4 (P56524 whole entry, species assumed): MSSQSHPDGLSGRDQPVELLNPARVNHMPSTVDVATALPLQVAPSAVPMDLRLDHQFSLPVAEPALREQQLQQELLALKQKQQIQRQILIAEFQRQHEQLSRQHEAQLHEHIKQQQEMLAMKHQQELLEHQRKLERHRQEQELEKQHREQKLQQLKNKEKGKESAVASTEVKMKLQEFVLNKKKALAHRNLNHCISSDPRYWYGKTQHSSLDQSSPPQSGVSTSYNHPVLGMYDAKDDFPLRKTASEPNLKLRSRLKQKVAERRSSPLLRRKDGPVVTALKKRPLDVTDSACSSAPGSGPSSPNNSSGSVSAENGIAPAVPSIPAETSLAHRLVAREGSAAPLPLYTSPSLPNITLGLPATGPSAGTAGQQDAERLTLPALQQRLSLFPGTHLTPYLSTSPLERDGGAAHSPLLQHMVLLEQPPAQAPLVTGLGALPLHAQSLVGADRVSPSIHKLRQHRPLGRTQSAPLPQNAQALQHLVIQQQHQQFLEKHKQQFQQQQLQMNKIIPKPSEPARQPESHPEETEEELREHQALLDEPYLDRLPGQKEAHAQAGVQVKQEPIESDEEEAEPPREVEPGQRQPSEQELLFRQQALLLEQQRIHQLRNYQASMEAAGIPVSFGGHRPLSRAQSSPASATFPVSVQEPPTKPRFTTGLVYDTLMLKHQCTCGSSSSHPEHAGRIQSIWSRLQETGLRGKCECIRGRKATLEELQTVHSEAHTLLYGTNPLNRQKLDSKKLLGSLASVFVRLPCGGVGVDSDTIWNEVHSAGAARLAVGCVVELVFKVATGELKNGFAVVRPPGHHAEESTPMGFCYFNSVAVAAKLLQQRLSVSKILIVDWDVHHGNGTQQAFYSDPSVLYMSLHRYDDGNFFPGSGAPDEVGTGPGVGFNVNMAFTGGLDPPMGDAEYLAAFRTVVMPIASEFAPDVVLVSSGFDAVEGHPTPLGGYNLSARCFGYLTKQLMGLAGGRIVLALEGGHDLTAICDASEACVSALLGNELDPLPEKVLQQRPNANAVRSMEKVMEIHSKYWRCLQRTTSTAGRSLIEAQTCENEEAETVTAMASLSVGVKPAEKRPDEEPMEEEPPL
Chain of HDAC4 (O15379 whole entry partner, species assumed): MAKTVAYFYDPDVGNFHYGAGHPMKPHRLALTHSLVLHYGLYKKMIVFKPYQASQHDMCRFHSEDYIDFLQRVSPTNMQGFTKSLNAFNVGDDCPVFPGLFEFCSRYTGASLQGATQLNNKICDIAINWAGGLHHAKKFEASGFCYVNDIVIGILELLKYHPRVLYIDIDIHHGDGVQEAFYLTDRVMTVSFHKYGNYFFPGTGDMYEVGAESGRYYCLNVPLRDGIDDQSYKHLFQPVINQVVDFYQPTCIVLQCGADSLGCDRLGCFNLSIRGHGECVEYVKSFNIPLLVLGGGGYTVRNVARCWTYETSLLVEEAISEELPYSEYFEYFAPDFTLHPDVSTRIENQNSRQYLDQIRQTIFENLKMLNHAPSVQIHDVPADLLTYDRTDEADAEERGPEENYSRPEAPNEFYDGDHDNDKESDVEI

SMILES strings stand for the structures. Where two headings read alike, the source gives them in different places.

Chain of human recombinant SIRT2 (Q8IXJ6 whole entry): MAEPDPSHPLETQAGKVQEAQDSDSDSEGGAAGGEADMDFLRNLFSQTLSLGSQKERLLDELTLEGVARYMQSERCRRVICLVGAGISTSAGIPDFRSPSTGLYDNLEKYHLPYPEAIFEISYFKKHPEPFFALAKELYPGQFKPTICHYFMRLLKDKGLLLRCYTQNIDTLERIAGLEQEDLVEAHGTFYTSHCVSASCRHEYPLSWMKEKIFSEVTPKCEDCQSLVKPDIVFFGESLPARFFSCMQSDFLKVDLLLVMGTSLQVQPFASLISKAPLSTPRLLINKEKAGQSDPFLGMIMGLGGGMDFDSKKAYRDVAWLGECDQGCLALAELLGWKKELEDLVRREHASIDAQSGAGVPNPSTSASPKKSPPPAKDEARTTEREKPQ

Turning to `O=C(NCCSSCCNC(=O)C(Cc1c[nH]c2ccc(Br)cc12)=NO)C(Cc1c[nH]c2ccc(Br)cc12)=NO` [UVI5008], in data set [1], the “p53 acetylation levels (readout of SIRT inhibition)” value is “hyperacetylation”. Also, the IC50 in [2] was 1.5 to 3 µM; in data set [4], 7.8 µM; in [8], 1.8 ± 0.1 µM. Further, in [3] (40 mg/kg i.p. every second day), the “Percent Growth Inhibition after 22 days” value was determined as 56 ± 7%. Moreover, in data set [3] (40 mg/kg i.p. every second day), the “animals with signs of toxicity (accumulation of intra peritoneal fluid)” value is listed as 3 animals out of 10. The Normalised tumour weight in data set [3] (day 1, 40 mg/kg i.p. every second day) is recorded as 100 ± 21.5 mg; in data set [3] (day 4, 40 mg/kg i.p. every second day) it was 180.55 ± 43 mg; in [3] (day 12, 40 mg/kg i.p. every second day), 548.73 ± 109.8 mg; in [3] (day 17, 40 mg/kg i.p. every second day), 915.28 ± 196.8 mg; in [3] (day 22, 40 mg/kg i.p. every second day), 1684.79 ± 262.1 mg. Further, the “anti tumoral activity compared with the reference compounds” value in data set [3] (each compound at its MTD) was “greater anti tumoral activity with respect to SAHA and MS-275”. The “anti-proliferative and apoptogenic action” value in data set [5] and in [10] was “confirmed” throughout. Further, in data set [6], the “unmethylated p16INK4a promoter DNA (MSP)” value is reported as “increased”. Moreover, in data set [7], the “expression of p21WAF1/CIP1” value is on record as “dramatically increased”. Further, the “H3K9, H3K14 and H3K18 acetylations” value in data set [9] is reported as “all increased”. In addition, in data set [9], the “global histone H3 acetylation” value is “dramatically enhanced”. The “methylation of H3K9” value in data set [9] is “decreased”. Besides, the “HDAC4 deacetylase activity inhibition” value in data set [11] is “nearly completely blocked”.
